Literature values, collected in publication PMC3259182 (European Journal of Medicinal Chemistry, 2011).

Key:
HG23 cells = settings: median toxic dose at 48 hr of treatment, ref [4]
[1] = system: NV replicon-harboring cells (HG23 cells); settings: NV genome levels, 24 hr post-treatment, ref [4]

Row | SMILES | TD50 (HG23 cells) | ED50 [1]
1 | Cl.O=S1(=O)N(CCN2CCOCC2)CCN1Cc1cccc(Oc2ccccc2)c1 [Compound 7c, 2-(2-Morpholinoethyl)-5-(3-phenoxybenzyl)-1,2,5-thiadiazolidine 1,1-dioxide] | 95.4 µM | 5.2 µM
2 | O=S1(=O)N(CCN2CCCCC2)CCN1Cc1cccc(Oc2ccccc2)c1 [Compound 7d, 2-(3-Phenoxybenzyl)-5-(2-(piperidin-1-yl)ethyl)-1,2,5-thiadiazolidine1,1-dioxide] | 12.3 µM | 4.7 µM
